Measurements: US10294217B2, “Fluoroindole derivatives as muscarinic M1 receptor positive allosteric modulators” (Suven Life Sciences Limited, priority 2015, dated 2019)
Like-named read-outs stand apart in the source and are kept apart here.

Tests used:
[1] = Protein binding assay (HT dialysis), dog matrices; format: in vitro ADME; conditions: Mean ± SEM
Description: Unbound fractions of new chemical entities in plasma, brain homogenate and liver microsomes were determined using high-throughput dialysis (HT dialysis). Briefly, dialysis membranes were soaked in deionized water for 20 minutes and then in deionized water with 30% ethanol for 15 minutes and finally in phosphate buffer until use. Membranes were rinsed in phosphate buffer before assembling. The membranes were layered between teflon bars of dialysis assembly. Stock solutions of test compounds were prepared at 10 mM in DMSO, diluted to 1 mM in acetonitrile and further diluted to 100 μM in mixture of water and acetonitrile (1:1 v/v). Human plasma (pool of 3) was prepared from human blood (3 donors) by centrifuging at 4000 rpm for 10 min at 4° C. Rat and dog blood were obtained on the day of the study and centrifuged to obtain plasma. Rat brains were isolated, cleaned and homogenized with 2 volumes of buffer (3 fold dilution). Liver microsomes were prepared at 0.5 mg/mL in phosphate buffer (100 mM, pH 7.4). The dialysate chambers were loaded with 150 μL of 100 mM phosphate buffer (pH 7.4) in triplicates. The matrix chambers were loaded with 150 μL of the plasma or brain homogenate or microsomal suspension spiked with test compounds at a final concentration of 1 μM. 50 μL of the sample was removed from both the chambers at 0 h. The plate was sealed and incubated at 37° C. for 6 h at 100 rpm. After 6 h, 50 μL of the sample was removed from both the chambers. Equal volumes of buffer or human plasma/microsomal suspension were added to the plasma/microsomal and buffer samples respectively to create identical sample matrices for analysis. The samples were precipitated with 150 μL of acetonitrile containing fluoxetine as an internal standard. All the samples were centrifuged at 10000 rpm for 10 minutes at 4° C.

Male Wistar rats = assay: Object recognition task model - scopolamine challenge; format: in vivo; conditions: p.o.; for Exploration time Familiar object / Exploration time Novel object: mean ± S.E.M, choice trial 3 minutes after T1
Description: Object Recognition Task Model—Scopolamine challenge
The cognition enhancing properties of compounds of this invention were estimated by using this model.
Male Wistar rats (8-10 weeks old) were used as experimental animals. Four animals were housed in each cage. Animals were kept on 20% food deprivation from a day prior to experimentation. Water was provided ad libitum throughout the experiment. Animals were maintained on a 12 hours light/dark cycle in temperature and humidity controlled room. The experiment was carried out in an open field made up of acrylic. Rats were habituated to individual arenas (open field) for 1 hour in the absence of any objects on day 1.
Rats received vehicle or vehicle and scopolamine or compound of the formula (I) and scopolamine, before the familiar (T1). During the familiarization phase, (T1), the rats were placed individually in the arena for 3 minutes, in which two identical objects (a1 and a2) were positioned 10 cm from the wall. 3 minutes after T1, trial for memory test was performed. The same rats were placed in the same arena as they were placed in T1 trial. During the choice phase (T2) rats were allowed to explore the arena for 3 minutes in presence of a copy of familiar object (a3) and one novel object (b). During the T1 and T2 trial, explorations of each object (defined as sniffing, licking, chewing or having moving vibrissae whilst directing the nose towards the object at a distance of less than 1 cm) were recorded using stopwatch. • T1 is the total time spent exploring the familiar objects (a1+a2). • T2 is the total time spent exploring the familiar object and novel object (a3+b). • Discriminative index=Time spent with novel object/(time spent with novel and familiar object).

[2] = target: human Muscarinic M1 receptor (Homo sapiens (Human), UniProt P11229); assay: Allosteric potency EC50 for muscarinic M1 receptor (CHO cells, pCRE-Luc reporter); format: cell-based; conditions: luciferase activity, 4 hours
Description: Determination of Allosteric Potency EC50 Values for Muscarinic M1 Receptor:
A stable CHO cell line expressing recombinant human Muscarinic M1 receptor and pCRE-Luc reporter system was used for cell-based assay. The assay offers a non-radioactive based approach to determine binding of a compound to GPCRs. In this specific assay, the level of intracellular cyclic AMP which is modulated by activation or inhibition of the receptor is measured. The recombinant cells harbor luciferase reporter gene under the control of cAMP response element.
The above cells were grown in 96 well clear bottom white plates in Hams F12 medium containing 10% fetal bovine serum (FBS). Prior to the addition of compounds or standard agonist, cells were serum starved overnight. Increasing concentrations of test compounds were added along with EC20 of acetylcholine in OptiMEM medium to the cells. The incubation was continued at 37° C. in CO2 incubator for 4 hours. Medium was removed and cells were washed with phosphate buffered saline. The cells were lysed and luciferase activity was measured in a Luminometer. Luminescence units were plotted against the compound concentrations using Graphpad software. EC50 values of the compounds were defined as the concentration required in stimulating the luciferase activity by 50% in presence of EC20 of acetylcholine and the results are provided in table 1.

[3] = pH 7.4, Dog liver microsomes 0.5 mg/mL, n = 3, read-out: Fu Microsomes
[4] = pH 7.4, Dog plasma, 37° C., n = 3, read-out: Fu Plasma
[5] = in presence of EC20 of acetylcholine, read-out: hM1 PAM EC50

Cn1cc(Cn2cc(C(=O)N[C@H]3CCCC[C@@H]3O)c3c(F)ccc(F)c32)cn1 [Example 5, N-[(1S,2S)-2-Hydroxycyclohexyl]-1-(1-methyl-1H-pyrazol-4-ylmethyl)-4,7-difluoro-1H-indole-3-carboxamide]
fraction unbound at 6 h, 1 μM [1, 3]: 0.746 ± 0.004 | fraction unbound at 6 h, 1 μM [1, 4]: 0.163 ± 0.02 | Inference (Male Wistar rats; 1 mg/kg): Active | Exploration time Familiar object (Male Wistar rats; 1 mg/kg): 13.61 ± 1.79 s | Exploration time Novel object (Male Wistar rats; 1 mg/kg): 25.72 ± 3.67 s

Cn1cc(Cn2cc(C(=O)N[C@H]3CCCC[C@@H]3O)c3c(F)cccc32)cn1 [Example 1, N-[(1S,2S)-2-Hydroxycyclohexyl]-1-(1-methyl-1H-pyrazol-4-ylmethyl)-4-fluoro-1H-indole-3-carboxamide]
EC50 [2, 5]: 1260 nM | fraction unbound at 6 h, 1 μM [1, 3]: 0.982 ± 0.01 | fraction unbound at 6 h, 1 μM [1, 4]: 0.217 ± 0.21 | Inference (Male Wistar rats; 0.3 mg/kg): Active | Exploration time Familiar object (Male Wistar rats; 0.3 mg/kg): 7.54 ± 1.93 s | Exploration time Novel object (Male Wistar rats; 0.3 mg/kg): 13.07 ± 1.79 s

Cl.O=C(N[C@H]1CCNC[C@H]1F)c1cn(Cc2ccnc(F)c2)c2c(F)ccc(F)c12 (single isomer, unassigned; isomer-i) [Example 22, Cis-N-(3-Fluoropiperidin-4-yl)-1-(2-fluoropyridin-4-ylmethyl)-4,7-difluoro-1H-indole-3-carboxamide hydrochloride (Isomer-I)]
EC50 ([2]; hM1 PAM EC50, in presence of EC20 of acetylcholine): 1490 nM | fraction unbound at 6 h, 1 μM [1, 3]: 0.866 ± 0.034 | fraction unbound at 6 h, 1 μM [1, 4]: 0.31 ± 0.01 | Inference (Male Wistar rats; 1 mg/kg): Active | Exploration time Familiar object (Male Wistar rats; 1 mg/kg): 21.34 ± 3.65 s | Exploration time Novel object (Male Wistar rats; 1 mg/kg): 29.70 ± 1.72 s

O=C(N[C@H]1CCCC[C@@H]1O)c1cn(Cc2ccnc(Cl)c2)c2cccc(F)c12 [Example 2, N-[(1S,2S)-2-Hydroxycyclohexyl]-1-(2-chloropyridin-4-ylmethyl)-4-fluoro-1H-indole-3-carboxamide]
EC50 [2, 5]: 681 nM | fraction unbound at 6 h, 1 μM [1, 3]: 0.576 ± 0.079 | fraction unbound at 6 h, 1 μM [1, 4]: 0.087 ± 0.008 | Inference (Male Wistar rats; 0.3 mg/kg): Active | Exploration time Familiar object (Male Wistar rats; 0.3 mg/kg): 14.29 ± 1.92 s | Exploration time Novel object (Male Wistar rats; 0.3 mg/kg): 20.93 ± 2.89 s

O=C(N[C@H]1CCCC[C@@H]1O)c1cn(Cc2ccnc(F)c2)c2cccc(F)c12 [Example 7, N-[(1S,2S)-2-Hydroxycyclohexyl]-1-(2-fluoropyridin-4-ylmethyl)-4-fluoro-1H-indole-3-carboxamide]
EC50 [2, 5]: 1360 nM | fraction unbound at 6 h, 1 μM [1, 3]: 0.6 ± 0.03 | fraction unbound at 6 h, 1 μM [1, 4]: 0.2 ± 0.01

O=C(N[C@H]1CCCC[C@@H]1O)c1cn(Cc2ccnc(F)c2)c2c(F)ccc(F)c12 [Example 8, N-[(1S,2S)-2-Hydroxycyclohexyl]-1-(2-fluoropyridin-4-ylmethyl)-4,7-difluoro-1H-indole-3-carboxamide]
EC50 [2, 5]: 192 nM | fraction unbound at 6 h, 1 μM [1, 3]: 0.679 ± 0.066 | fraction unbound at 6 h, 1 μM [1, 4]: 0.064 ± 0.01
